Laboratory results published in article PMC12509308, “Stereochemistry and Charged State Influence Effector Outcomes of D‑2-Hydroxyglutarate Dehydrogenase Ligands” (Biochemistry, 2025).

B1: PaD2HGDH (Pseudomonas aeruginosa PAO1) (protein)
chain: MTREALIESLKPLVEPGKLLDDAASLDAYGKDWTKHFAPAPLAIVFPKSVEQVQAIVRWANQHKVGLVPSGGRTGLSAAAVAANGEVVVAFDYMNRILDFNAFDRTVVCQPGVVTKQLQTFAEENGLYYPVDFASSGSSQIGGNIGTNAGGIKVIRYGMTRNWVAGMKVVTGKGDLLELNKDLIKNATGYDMRQLFIGAEGTLGFVVEATMRLERTPKNLTAMVLGTPDFDSIMPVLHAFQSKLDLTAFEFFSDKALAKVLARGDVPRAFETDCPFYALLEFEATTEEVANEALATFEHCVEQGWVLDGVMSQSEQQLQNLWKLREYISETISHWTPYKNDISVTVSRVPAFLKDIDAIVEANYPDFEVVWFGHIGDGNLHLNILKPENLGKDEFFAKCATVNKWVFETVEKYNGSISAEHGVGMTKRDYLTYTRSETEIAYMKALKAVFDPNGIMNPGKIFAE
notes: full-length wild type, C-terminal 6x-His tag kept, pET20b(+), expressed in E. coli Rosetta(DE3)pLysS, Ni-NTA purified

substrate: O=C(O)C[C@@H](O)C(=O)O; assay: PMS-driven oxygen consumption, initial rates, global fit of inhibition data; type: biochemical, Pseudomonas aeruginosa; conditions: fitted in the oxaloacetate inhibition assay (Ka extrapolated to no inhibitor), D-malate 1-60 mM, 1 mM PMS, 25 mM NaPO4 pH 7.4, 25 °C
From the text: PMS-driven oxygen consumption, initial rates, global fit of inhibition data on PaD2HGDH

| Molecule | Km | kcat |
| --- | --- | --- |
| B1 | 8.4 ± 0.1 mM | 29.1 ± 0.1 s⁻¹ |

molecular target: T1, PaD2HGDH (Pseudomonas aeruginosa, UniProt Q9I6H4); assay: PMS-driven oxygen consumption, initial rates, steady-state inhibition; type: biochemical; conditions: read-out: Kis
T1 construct: gene PA0317; full-length wild type, C-terminal 6x-His tag kept, pET20b(+), expressed in E. coli Rosetta(DE3)pLysS, Ni-NTA purified
T1 sequence (Q9I6H4 1-464): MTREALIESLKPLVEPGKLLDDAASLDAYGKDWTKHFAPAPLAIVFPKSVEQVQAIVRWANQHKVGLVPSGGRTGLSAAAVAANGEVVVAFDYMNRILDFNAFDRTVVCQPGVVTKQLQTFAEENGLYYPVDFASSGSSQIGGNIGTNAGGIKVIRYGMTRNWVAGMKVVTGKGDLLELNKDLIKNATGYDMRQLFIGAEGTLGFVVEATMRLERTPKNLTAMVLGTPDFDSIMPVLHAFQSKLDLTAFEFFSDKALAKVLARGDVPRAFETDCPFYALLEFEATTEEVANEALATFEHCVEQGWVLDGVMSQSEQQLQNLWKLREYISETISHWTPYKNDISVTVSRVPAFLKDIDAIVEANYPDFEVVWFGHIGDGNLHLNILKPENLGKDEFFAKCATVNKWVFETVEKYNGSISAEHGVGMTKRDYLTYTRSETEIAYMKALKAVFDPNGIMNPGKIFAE
From the text: PMS-driven oxygen consumption, initial rates, steady-state inhibition on PaD2HGDH

| Molecule | Ki |
| --- | --- |
| O=C(O)C(O)c1ccc(O)c(O)c1 (racemic) [D/L-3,4-Dihydroxymandelate] | 4.1 ± 0.3 mM |
| O=C(O)C(O)c1ccc(O)cc1 (racemic) [D/L-4-Hydroxymandelate] | 6.5 ± 0.7 mM |
| O=C(O)CC(C(=O)O)C(O)C(=O)O (racemic) [D/L-Isocitrate] | 7.8 ± 0.4 mM |
| O=C(O)CCC(=O)C(=O)O [2-Ketoglutarate] | 4.3 ± 0.3 mM |
| O=C(O)[C@H](O)c1ccccc1 [D-Mandelate] | 18.4 ± 0.6 mM |
| O=C(O)CC[C@H](O)C(=O)O [L-2-Hydroxyglutarate] | 4.1 ± 0.4 mM |
| O=C(O)C[C@H](O)C(=O)O [L-Malate] | 14.6 ± 1.5 mM |
| O=C(O)CC(=O)C(=O)O [Oxaloacetate] | 2.02 ± 0.03 mM |
| O=C(O)C(O)C(=O)O [Tartronate] | 18.6 ± 1.3 mM |
